What all share (experiment): DTP human tumour cell line panel, 48 h
Test [1] relates to KM20L2 colon.
Test [2] concerns SK-MEL-2 melanoma.
Test [3] has as its system CAKI-1 renal.
Test [4] has as its system K-562 leukemia.
Test [5] relates to LXFL 529 NSCLC.
For test [6], the system named is CCRF-CEM leukemia.
Test [7] deals with SK-MEL-5 melanoma.
In test [8] the test system is M14 melanoma.
Test [9] relates to MCF7 breast.
Test [10] deals with HS 578T breast.

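These data come from cells grown in 96-well plates and exposed to compound for 48 hours at five concentrations. The concentration for 50% growth inhibition is given as GI50. TGI denotes the concentration required for complete inhibition of growth.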

One may read the TGI as the concentration giving total growth inhibition. What is called GI50 is the concentration giving 50% growth inhibition.

As for `CN1CCC(O)C(CNC23CC4CC(CC(C4)C2)C3)C1` (configuration not stated), the TGI in test [1], in test [2], in test [3], in test [4], in test [5] and in [6] was above 100 µM throughout. The same molecule gave a TGI in test [7] above 100 µM.

Take `COc1ccc(CN(O)C2C(CO)OC(n3cc(I)c(=O)[nH]c3=O)C2O)cc1` (configuration not stated): the concentration for total growth inhibition (TGI) in test [8], in test [1], in [2], in test [3], in [4] and in test [5] was above 100 µM throughout. The TGI in test [6] and in test [7] was above 100 µM throughout.

In the case of `CCN(CC)CCN(C)CC(C)(C)C(=O)/C=C/c1ccccc1`, the TGI in test [8] is 25.7 µM; in test [1], 23.1 µM; in test [2] it was 24.2 µM; in test [3] it was 28.7 µM; in test [4], above 100 µM; in test [5], 24.7 µM. The TGI was 38.4 µM in test [6] and 27.3 µM in test [7].

For `C=C1C(=O)OC2C1C(OC(=O)/C(=C/C)COC(C)=O)CC1(CO1)C1C(OC(=O)/C(=C/C)CO)C=C(C)C21` (configuration not stated), the TGI in test [8] was found to be 3.86 µM; in test [1], 11.2 µM; in [2], 3.63 µM; in [3], 2.13 µM; in [4], 10 µM; in test [5], 1.66 µM. Besides, the TGI in test [6] is 2.13 µM; in [7], 5.05 µM.

As for `O=C(CC1Sc2ccccc2NC1=O)Nc1cccc(Cl)c1` (configuration not stated), the TGI in [8], in test [1], in [2], in test [3], in test [4] and in [5] was above 100 µM in each case. For the same molecule, the TGI in test [6] and in test [7] was above 100 µM each time.

For the molecule `CC(C)NC(=O)OCc1nnn2c1C(OC(=O)NC(C)C)CC2` (configuration not stated), the TGI in test [8], in test [1], in test [2], in test [3], in [4] and in test [5] was above 100 µM throughout. Besides, the TGI in test [7] is above 100 µM.

As to `COCCNC(=O)C1C(=O)N(CCOC)C(=O)/C1=N/N` (configuration not stated), the TGI in test [8], in [1], in [2], in [3], in test [4] and in [5] was above 100 µM throughout. This molecule also displayed a TGI in test [6] above 100 µM.

Consider `CCCCNC(=S)Nn1c(-c2ccccc2)nc2ccccc2c1=O`, for which the TGI in test [8], in [2], in test [3], in [4], in test [5] and in test [6] was above 100 µM each time. The molecule further gave a TGI in test [7] above 100 µM.

As for `COc1ccc(C(=O)O/N=C2\CCCC\C2=C/c2ccccc2)cc1`, the TGI in test [8], in [1], in test [3], in test [5], in test [6] and in [7] was above 100 µM in each case.

Take `CC(=O)NNc1nc(C)c(C(/C=C/c2ccc(/C=C/C(=N\NC(=O)c3ccncc3)c3sc(NNC(C)=O)nc3C)cc2)=N/NC(=O)c2ccncc2)s1`: the TGI in test [8], in [1], in test [2], in test [3], in test [4] and in [5] was above 100 µM each time. Besides, the TGI in test [6] and in test [7] was above 100 µM in each case.

As for `CCS[C@H]1NC(=O)C1[C@H](C)O[Si](C)(C)C(C)(C)C` (some centres not stated), the TGI in test [1], in [2], in test [3] and in [4] was above 100 µM throughout.

Consider `COC(=O)C1Cc2c([nH]c3ccccc23)[C@H](CC(C)C)N1` (some centres not stated), for which the TGI in test [8], in test [1], in test [2], in test [4], in test [5] and in [6] was above 100 µM each time.

Consider `CC(=O)OC1COC(N2C(=O)C(=O)c3c(C)cc(Cl)nc32)C(OC(C)=O)C1OC(C)=O` (configuration not stated), for which the TGI in [8], in test [1], in [2], in test [3], in test [4] and in [5] was above 100 µM each time. The TGI in test [6] and in [7] was above 100 µM each time.

As to `CCCCN(CCCC)C(=Nc1ccccc1)N(CCCC)CCCC`, the TGI in test [1] stood at 12.5 µM; in test [2], 18.9 µM; in test [4], 10.4 µM; in [5], 18.5 µM; in test [6], 24.4 µM.

For the molecule `COC(=O)C(=O)C(C#N)c1cccc2ccccc12` (configuration not stated), the total growth inhibition concentration (TGI) in test [8], in test [1], in test [3], in test [4], in test [5] and in test [6] was above 100 µM each time. Besides, the TGI in test [7] was above 100 µM.

As to `O=C(CC(O)(c1ccccc1)c1ccc(Cl)cc1)NC(=O)c1ccccc1O` (configuration not stated), the TGI in test [8] was 27.9 µM; in [1] it was 34.3 µM; in [2], 22.1 µM; in test [3], 23.2 µM; in test [4], above 100 µM; in test [5], 56.3 µM. Besides, the values for the TGI in test [6] and in [7] were 43.2 µM and 19.1 µM, respectively.

As to `CCCOC(=O)C1CCC(=O)N1C(=O)C(Cl)Cl` (configuration not stated), the TGI in [8], in test [1], in [2], in test [3], in test [4] and in test [5] was above 100 µM each time. For the same molecule, the TGI in test [6] and in [7] was above 100 µM throughout.

For the molecule `CN(C)CCCn1cnc2ncccc2c1=O`, the TGI in [8], in test [2], in test [3], in test [4], in test [5] and in test [6] was above 100 µM throughout. The molecule also gave a TGI in test [7] above 100 µM.

For the molecule `CCOC(=O)C(C(=O)c1ccccc1-c1ccccc1C(=O)O)=P(c1ccccc1)(c1ccccc1)c1ccccc1`, the TGI was above 100 µM in [8]; 59.5 µM in [1]; 40.3 µM in test [2]; above 100 µM in [4]; above 100 µM in test [5]; 77.1 µM in [6]. Moreover, the TGI in test [7] is 29.6 µM.

Turning to `O=C(c1ccccc1)c1nnn(Cc2cccc(Cl)c2)c1C(=O)c1ccccc1`, the TGI in test [8], in test [1], in test [2], in test [3], in test [4] and in test [5] was above 100 µM throughout. The TGI in [6] and in test [7] was above 100 µM each time.

Regarding `COc1ccc(NC(=O)CC/C(CC(=O)c2ccco2)=N/Nc2ccc([N+](=O)[O-])cc2[N+](=O)[O-])cc1`, the TGI in test [8], in [1], in test [2], in test [3], in [4] and in test [5] was above 100 µM in each case. The TGI was 85.1 µM in test [6] and above 100 µM in [7].

On to `COC1CCC(=C2C(=O)OC(C)(C)OC2=O)N1` (configuration not stated), for which the TGI in test [8], in [1], in test [2], in [3], in test [4] and in [5] was above 100 µM throughout. In [6], this molecule came in with a TGI above 100 µM.

On to `Cc1c(C(=O)/C=C/c2ccco2)[n+](=O)c2ccccc2n1[O-]`, for which the total growth inhibition concentration (TGI) in test [8], in [1], in test [3], in test [4], in test [5] and in test [6] was above 100 µM in each case.

Turning to `COC(=O)C1=Cc2cc3c(cc2[C@H](c2ccc4c(c2)OCO4)C1C(=O)OC)OCO3` (some centres not stated), the TGI in test [8], in [1], in test [3], in test [4], in [5] and in [6] was above 100 µM in each case. The molecule also displayed a TGI in test [7] above 100 µM.

As to `N#Cc1c([N+](=O)[O-])cc(C(F)(F)F)cc1[N+](=O)[O-]`, the TGI was 17.1 µM in [8]; 44.2 µM in test [1]; 39.3 µM in test [2]; 8.94 µM in [3]; 5.08 µM in test [4]; 4.42 µM in [5]. This molecule yielded a TGI in test [7] of 23.8 µM.

Turning to `COC1OC(OC)C2C(c3c(C)cc(C)cc3C)=NOC12` (configuration not stated), the TGI in test [8], in [1], in test [2], in test [3], in test [4] and in test [5] was above 100 µM in each case. Besides, the TGI in test [6] and in test [7] was above 100 µM in each case.

On to `O=c1[nH]nc(-c2ccccc2)c(-c2ccccc2)c1-n1nc(-c2ccccc2)c2ccccc2c1=O`, for which the TGI in test [8], in [2], in test [3], in [4], in test [5] and in [6] was above 100 µM each time. The same molecule registered a TGI in [7] above 100 µM.

As to `CCC12C=CCN3CC[C@]4(C(=C(C(=O)OC)[C@@H]1Nc1ncnc5c1ncn5C1OC(COC(C)=O)C(OC(C)=O)C1OC(C)=O)Nc1ccccc14)C32` (some centres not stated), the TGI stood at 7.03 µM in test [8]; 6.94 µM in test [1]; 9.36 µM in [2]; 12.6 µM in test [3]; 17 µM in test [4]; 5.42 µM in test [5]. In addition, the TGI was 6.81 µM in test [6] and 8.47 µM in test [7].

Consider `CCc1ccc(Cc2ccc(CC)c(NC(=O)C(=O)Cc3nc4ccccc4nc3C)c2CC)c(CC)c1NC(=O)C(=O)Cc1nc2ccccc2nc1C`, for which the TGI in test [8], in [1], in test [2], in test [3], in test [4] and in test [5] was above 100 µM each time. Moreover, the TGI in test [6] and in test [7] was above 100 µM throughout.

Turning to `COc1cc[c]([Hg][Cl])cc1`, the GI50 in test [8] was 1.68 µM; in [2], 4.39 µM; in test [9] it was 1.01 µM; in [3], 6.55 µM; in test [4], 1.84 µM; in [6], 1.06 µM. For the same molecule, the values for the GI50 in test [7] and in [10] were 2.71 µM and 1.96 µM, respectively. Further, the TGI in [8] came out at 3.87 µM; in test [2] it was 17.4 µM; in [9] it was 4.53 µM; in [3] it was 23 µM; in test [4] it was 6.73 µM; in test [6], 5.4 µM. Besides, the TGI amounted to 11.1 µM in [7] and 47.2 µM in test [10].

For `Cc1c2c(n3c(nc4ccccc43)c1C#N)SCC2`, the TGI in test [8], in [2], in test [9], in test [3], in test [4] and in [6] was above 10 µM throughout. The TGI in [7] and in test [10] was above 10 µM in each case.

With `O=C(Cn1ccnc1[N+](=O)[O-])NCCO`, the TGI in test [8], in test [2], in [9], in test [3], in [4] and in test [6] was above 100 µM each time. Moreover, the TGI in test [7] and in test [10] was above 100 µM each time.

Consider `CC(C)c1ccc2c(c1)CCC1C(C)(C)[C@@H](O)CC[C@]21C` (some centres not stated), for which the TGI is 72.4 µM in test [8]; 44.4 µM in test [1]; above 100 µM in test [3]; above 100 µM in [4]; above 100 µM in [5]; above 100 µM in [6]. The same molecule showed a TGI in test [7] of 32.1 µM.

The values are drawn from PubChem BioAssay (NCI).
